This note sets out measurements from PubChem BioAssay AID1996.

Values after ≈ are worked out from the molar mass of the structure shown.

The conditions of the data set: buffer; pH 7.4; 200.0 µM.
For `OCCCNCc1ccc(N(c2ccccc2)c2ccccc2)cc1`, the solubility (kinetic) is 39 µg/mL (≈ 117 µM).

For the compound `Cc1ccc(OCCNC(=O)Cc2ccc(F)cc2)cc1`, the solubility (kinetic) was 29.2 µg/mL (≈ 102 µM).

`O=C(CN1CCN(C(=O)c2ccc(OCc3cn4ccccc4n3)cc2)CC1)Nc1cccc(F)c1` showed a solubility (kinetic) of 8.6 µg/mL (≈ 17.6 µM).

As to `CCNC(=O)N1CCN(C(=O)NCC)CC1`, the kinetic solubility is 13.6 µg/mL (≈ 59.6 µM).

As to `O=C(Nc1sc2c(c1C(=O)O)CCCCC2)c1cccnc1`, the kinetic solubility is > 47.5 µg/mL.

`C=COC(=O)c1sc2nc(C)cc(C)c2c1N`: the kinetic solubility worked out at 0.5 µg/mL (≈ 2.01 µM).

For `C=CCn1cccc(C(=O)Nc2ccc(SC)cc2)c1=O`, the solubility (kinetic) was 38.5 µg/mL (≈ 128 µM).

Take `COc1cccc(NC(=S)N2CCCN(Cc3ccc(F)cc3)C2)c1`: the solubility (kinetic) was found to be 49.8 µg/mL (≈ 139 µM).

`O=C(NC12CC3CC(CC(C3)C1)C2)c1cc(F)c(F)cc1Cl` yielded a kinetic solubility of 0.7 µg/mL (≈ 2.15 µM). Against the preceding compound, the solubility kinetic is about 71-fold lower.

`Cc1ccc(NC(=O)CN2CCCCCC2)cc1[N+](=O)[O-]` came in with a solubility (kinetic) of 1.2 µg/mL (≈ 4.12 µM).

As to `Cc1cc(C)cc(OCC(O)CN2CC(C)OC(C)C2)c1.Cl` (configuration not stated), the kinetic solubility is > 49.5 µg/mL.

For `COc1ccc(-n2c(CCC(=O)O)ccc2-c2ccccc2)cc1`, the solubility (kinetic) was > 48.2 µg/mL.

Consider `O=Cc1cc([N+](=O)[O-])ccc1N1CCN(Cc2ccc3c(c2)OCO3)CC1`, for which the solubility (kinetic) was 12.2 µg/mL (≈ 33 µM).

`O=C(CCCn1c(=O)[nH]c2ccccc2c1=O)Nc1ccc(F)cc1` displayed a kinetic solubility of 7.7 µg/mL (≈ 22.6 µM).

As to `O=C(Nc1cc([N+](=O)[O-])ccc1Cl)c1cccnc1`, the kinetic solubility was 26.4 µg/mL (≈ 95.1 µM).

As to `COc1cccc(NC(=O)c2cccc(C(=O)Nc3cccc(OC)c3)c2)c1`, the solubility (kinetic) was < 0.4 µg/mL.

As to `O=C(/C=C/c1ccc([N+](=O)[O-])s1)N1CCCC1`, the kinetic solubility was > 37.8 µg/mL.

The compound `O=C(OCC(=O)N1CCOCC1)c1ccc(N2CCOCC2)c([N+](=O)[O-])c1` returned a kinetic solubility of 54.6 µg/mL (≈ 144 µM).

Regarding `COc1ccc(C(C)=O)cc1CSc1nnc(-c2ccncc2)n1C`, the kinetic solubility was > 53.2 µg/mL.

In turn, `CCN(Cc1ccncc1)Cc1ccc(OC)cc1OC.O=C(O)C(=O)O` registered a kinetic solubility of 43.5 µg/mL.

Take `O=C(Nc1ncccn1)c1ccc([N+](=O)[O-])cc1[N+](=O)[O-]`: the solubility (kinetic) turned out to be 38.7 µg/mL (≈ 134 µM).

Take `Cc1cccc(NC(=O)Cc2c(F)cccc2Cl)n1`: the kinetic solubility was > 41.8 µg/mL.

With `O=c1oc(-c2ccc(Br)cc2)nc2ccccc12`, the kinetic solubility is < 0.6 µg/mL.

As for `COCCCNCC(O)C(F)(F)F` (configuration not stated), the solubility (kinetic) turned out to be 24.4 µg/mL (≈ 121 µM).

As to `Cc1cccc(NC(=O)NNC(=O)c2ccccn2)c1`, the kinetic solubility is > 40.5 µg/mL.

For the compound `CCOC(=O)c1ccc(NC(=O)c2cc(F)c(F)cc2Cl)cc1`, the solubility (kinetic) was < 0.7 µg/mL.

Regarding `CC(=O)N=c1sccn1CC(O)c1ccccc1` (configuration not stated), the solubility (kinetic) was > 39.3 µg/mL.

Consider `Cc1ccn2cc(CCNC(=O)C3CC=CCC3C(=O)O)nc2c1` (configuration not stated), for which the kinetic solubility turned out to be 45.7 µg/mL (≈ 140 µM).

Turning to `CC(C)(C)P(=O)(N1CCOCC1)N1CCOCC1`, the solubility (kinetic) was > 41.4 µg/mL.

For the compound `O=C(CN1CCN(c2ccccc2)CC1)c1c[nH]c2ccccc12`, the kinetic solubility was 4.4 µg/mL (≈ 13.8 µM).

`CNc1nc(-c2ccc3c(c2)CCN3C(=O)CC(C)(C)C)c(C)s1`: the solubility (kinetic) was 17.5 µg/mL (≈ 50.9 µM).

The compound `O=C(Nc1cccc2c1CCCC2)c1ccccc1F` displayed a solubility (kinetic) of 2.5 µg/mL (≈ 9.28 µM).

Compound `CN(CC(=O)Nc1ccc(OC(F)F)cc1)S(=O)(=O)/C=C/c1ccccc1` yielded a kinetic solubility of 5.4 µg/mL (≈ 13.6 µM). Compared with the last compound, the solubility kinetic is about 2.2-fold higher.

As to `COc1ccccc1NC(=O)c1coc(=O)c(Br)c1`, the solubility (kinetic) is 5.4 µg/mL (≈ 16.7 µM).

For `NC(=Nc1ccc(Br)cc1)c1ccccc1`, the kinetic solubility was > 41.3 µg/mL.

Compound `COC(=O)c1ccc2nccnc2c1` showed a solubility (kinetic) of 22.7 µg/mL (≈ 121 µM).

Regarding `CN1C(=O)c2ccccc2C(C(=O)O)C1c1cccc([N+](=O)[O-])c1` (configuration not stated), the kinetic solubility is > 48.9 µg/mL.

On to `C=CCOc1ccc(CNc2ccc3[nH]c(=O)[nH]c3c2)cc1OC`, for which the solubility (kinetic) was 2.7 µg/mL (≈ 8.3 µM).

Turning to `Cc1cccc(N2C(=O)C3CCCN3C2=S)c1` (configuration not stated), the kinetic solubility was determined as 36.1 µg/mL (≈ 147 µM).

`Cc1cc(C(=O)N2CCN(c3ccc([N+](=O)[O-])cc3)CC2)c(C)o1` had a kinetic solubility of 20.3 µg/mL (≈ 61.6 µM).

`O=C(COC(=O)/C=C/c1cccs1)Nc1ccc(F)cc1` gave a solubility (kinetic) of 8.4 µg/mL (≈ 27.5 µM).

Take `Nc1nc(F)nc2c1ncn2[C@@H]1O[C@H](CO)[C@@H](O)[C@H]1O`: the kinetic solubility was > 42.8 µg/mL.

`Cc1nc(CN(C)Cc2nc(Cc3cccc(F)c3)no2)cs1`: the kinetic solubility was > 49.9 µg/mL.

For the compound `Cc1csc(NC(=O)C2CCCCC2)n1`, the solubility (kinetic) worked out at 19.9 µg/mL (≈ 88.7 µM).

`CC(=O)c1cccc(NC(=S)NC2CCCCCCC2)c1` yielded a kinetic solubility of 6 µg/mL (≈ 19.7 µM).

Turning to `CC(=O)c1ccc(Nc2c(C)n(C)n(-c3ccccc3)c2=O)cc1`, the kinetic solubility was > 48.2 µg/mL.

As for `COc1ccc(CSc2nc(O)cc(=O)n2CC(C)C)cc1F`, the solubility (kinetic) is > 50.8 µg/mL.

As to `Nc1cc(=O)[nH]c(SCC(=O)c2ccc(F)cc2)n1`, the solubility (kinetic) is > 41.9 µg/mL.

`O=C(CSc1nccn1-c1ccccc1)NCc1ccc(F)cc1` showed a solubility (kinetic) of 33.5 µg/mL (≈ 98.1 µM).

Turning to `COc1ccccc1NC(=O)CSc1nnc(-c2ccccn2)o1`, the kinetic solubility was > 51.4 µg/mL.

`NS(=O)(=O)c1ccc(NC(=O)CSc2nc3ccccc3c(=O)n2Cc2ccncc2)cc1`: the kinetic solubility was 8 µg/mL (≈ 16.6 µM).

Turning to `Cc1ccc(C(=O)CCC(=O)NCc2ccc(Cl)cc2)cc1`, the solubility (kinetic) was determined as 9.7 µg/mL (≈ 30.7 µM).
